Consider 1 substance from patent publication US7745402B2, “Method of treating pancreatitis” (Lundbeck Inc., priority 2005, dated 2010).

Assay [1] has as its system HO-1^+ pancreatic macrophages. The experiment in a line: Staining of pancreatic macrophages (HO-1, F4/80) after hemin. Conditions: intraperitoneal hemin. Format: in vivo, mice. The protocol:
FIG. 3: Hemin increases HO-1^+ pancreatic macrophages in association with MCP-1 and MIP-1α induction. (A) Pancreas from CDD-fed mice was triple-stained using antibodies to HO-1 (a), the macrophage marker F4/80 (b), and the granulocyte marker Gr-1 (c). Scale bar in panel d=20 μM. (B) Mice were treated intraperitoneally with hemin (H) or vehicle (V) once (H×1) or 3×(H×3, V×3) during a one week period, followed by feeding with CDD or regular chow for 3 d. Pancreata were collected followed by staining and counting F4/80^+ macrophages in 10 randomly selected high power fields (HPF). The mean±SD (3 mice/group) and p-value for the indicated comparisons are shown. […]
Animal procedures. […] Immunofluorescence staining was performed as described (29) and images were analyzed using confocal microscopy. Total tissue lysates were prepared by homogenization in Laemmli sample buffer and analyzed by SDS-PAGE followed by transfer to membranes for blotting and protein visualization by enhanced chemiluminescence. Trypsin activity was determined using a fluorimetric assay and the substrate Boc-Gln-Ala-Arg-MCA (Peptides International Inc.; Louisville, Ky.), and comparison to a standard curve generated with purified trypsin as described. […] Lung injury after caerulein administration was assessed as previously described, based on neutrophilic infiltration, pulmonary edema, alveolar distension and collapse. […]

Another assay has as its system macrophages. The experiment in a line: In vivo macrophage homing to the pancreas, bioluminescence imaging. Also noted: species or system FVB/n mice. The note with it: single dose of hemin 24 h prior to cell transfer. Here is the method: FIG. 4: Effect of hemin on in vivo macrophage homing to the pancreas using bioluminescence imaging. (A) Experimental scheme of cell transfer. Hemin (H) was injected 3× intraperitoneally into luciferase-overexpressing (+/+) mice, then peritoneal cells were harvested and macrophages were selected using anti-Mac-1 magnetic beads. Luciferase/Mac-1 double-positive cells were transferred intraperitoneally to wild-type (luciferase −/−) mice that were preinjected with one dose of H or vehicle (V) 24 h prior to the transfer. This hemin injection is necessary to induce pancreatic chemokines (FIG. 3C). (B) Live images of recipient intact anesthetized mice were taken 5 min (a) or 24 h (b) after cell transfer. Livers and pancreata were removed 24 h after the transfer followed by imaging (c). The signal intensity scale bar is shown below each image. (C) A duplicate of the pancreata shown in image c of panel B (from recipients receiving donor cells from H-injected animals) was double-stained with antibodies to luciferase and F4/80. […] Bar in panel c=50 μm.
The present invention offers a novel approach of immune-mediated therapy via the unanticipated effect of hemin on leukocyte recruitment to the pancreas. Based on a mouse animal model of pancreatitis, the therapeutic approach of the present invention has applicability to other mammalian, particularly human, pancreatitis. […]

Take Hemin: the “HO-1^+ pancreatic macrophages” value in assay [1] is “increases”. Also, the “macrophage recruitment to the pancreas after hemin priming of recipients” value in the assay with macrophages was “stimulates pancreatic chemokine production and triggers migration of macrophages to the pancreas”.
